In patent US20250171462A1 (NICO Therapeutics, Inc., priority 2022, published 2025) one finds IC50 data, which are given here for twelve molecules.

For the test, the target named is T1, full-length SARM1 (FL-SARM1) (Homo sapiens, UniProt Q6SZW1).
T1 sequence (Q6SZW1 28-724): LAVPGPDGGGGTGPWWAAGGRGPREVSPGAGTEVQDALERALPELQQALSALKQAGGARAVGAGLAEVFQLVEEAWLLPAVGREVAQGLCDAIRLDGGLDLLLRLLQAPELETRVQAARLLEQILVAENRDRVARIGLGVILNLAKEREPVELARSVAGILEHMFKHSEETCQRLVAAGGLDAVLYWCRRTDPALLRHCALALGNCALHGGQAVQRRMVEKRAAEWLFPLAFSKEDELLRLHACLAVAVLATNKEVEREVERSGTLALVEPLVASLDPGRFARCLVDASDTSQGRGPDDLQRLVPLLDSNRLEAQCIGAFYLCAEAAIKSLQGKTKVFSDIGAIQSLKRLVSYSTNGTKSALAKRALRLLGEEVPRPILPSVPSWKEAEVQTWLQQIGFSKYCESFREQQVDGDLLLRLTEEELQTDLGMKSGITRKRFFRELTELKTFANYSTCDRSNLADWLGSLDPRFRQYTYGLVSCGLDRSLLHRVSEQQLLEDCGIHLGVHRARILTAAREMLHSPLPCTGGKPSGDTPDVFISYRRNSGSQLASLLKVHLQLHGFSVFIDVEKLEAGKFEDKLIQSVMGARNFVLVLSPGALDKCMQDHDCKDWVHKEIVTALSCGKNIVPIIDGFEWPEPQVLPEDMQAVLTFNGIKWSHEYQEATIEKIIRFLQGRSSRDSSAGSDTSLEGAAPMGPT
Description: FL-SARM1 cellular lysate assay (NAD/NADH-Glo detection of remaining NAD+, NMN-activated).

The mark [1] stands for this setting: Activity (IC50 class), 11 point curve.
The mark [2] stands for this setting: Activity (μM) (IC50), 11 point curve.
The mark [3] stands for this setting: read-out: Activity (IC50 class), 11 point curve.

A word on the IC50: it is the concentration that inhibits the measured activity by half.

Where two headings read alike, the source gives them in different places.

Regarding `Cc1ccc(NC(=O)[C@H]2C[C@@H]3[C@H](C2)C3(F)F)cc1-c1cccnn1` [Example 177, cis-6,6-difluoro-N-(4-methyl-3-(pyridazin-3-yl)phenyl)bicyclo[3.1.0]hexane-3-carboxamide], the IC50 was greater than 10 µM under setting [1] and 23 µM under setting [2].
The like results for `Cc1nnc(CN2[C@@H](C(=O)Nc3ccc(C)c(-c4ncc(F)cn4)c3)C[C@H]3C[C@H]32)o1` [Example 171, (1R,3R,5R)—N-(3-(5-fluoropyrimidin-2-yl)-4-methylphenyl)-2-((5-methyl-1,3,4-oxadiazol-2-yl)methyl)-2-azabicyclo[3.1.0]hexane-3-carboxamide] were, in that order, greater than 10 µM and 18 µM.
The like results for `Cc1ccc(NC(=O)N2CCCC2c2cnn(C)c2)cc1-c1ccccn1` (racemic) [Example 90, 2-(1-methylpyrazol-4-yl)-N-(4-methyl-3-pyridin-2-ylphenyl)pyrrolidine-1-carboxamide] were, in that order, greater than 10 µM and 14 µM.
`Cc1ccc(NC(=O)N2C3CCCC2C3)cc1-c1cc(C#N)cnn1` [Example 63, N-(3-(5-cyanopyridazin-3-yl)-4-methylphenyl)-6-azabicyclo[3.1.1]heptane-6-carboxamide]: the IC50 is, setting by setting: under setting [2], 0.7 µM; under setting [3], 0.0001 to 1 µM.
On to `Cc1ccc(NC(=O)N2C3C[C@@H]2CC[C@@H]3C)cc1-c1ccccn1` (single isomer, unassigned) [Example 47, cis-2-methyl-N-(4-methyl-3-(pyridin-2-yl)phenyl)-6-azabicyclo[3.1.1]heptane-6-carboxamide], for which the IC50 runs as follows: under setting [2], 0.06 µM; under setting [3], 0.0001 to 1 µM.
For `Cc1cc(C)c(-c2ccccn2)cc1NC(=O)N1C2CCCC1C2` [Example 76, N-(2,4-dimethyl-5-(pyridin-2-yl)phenyl)-6-azabicyclo[3.1.1]heptane-6-carboxamide], the IC50 by setting is: under setting [1], 1 to 10 µM; under setting [2], 6.8 µM.
For the molecule `O=C(Nc1ccc(C(F)(F)F)c(-c2ccc(F)cn2)c1)[C@@H]1CC1(F)F` [Example 125, (1S)-2,2-difluoro-N-[3-(5-fluoropyridin-2-yl)-4-(trifluoromethyl)phenyl]cyclopro-pane-1-carboxamide], the IC50 was 1 to 10 µM under setting [1] and 3.5 µM under setting [2].
Regarding `CCOC(C)[C@@]12CC(C[C@@H](C)C1)N2C(=O)Nc1ccc(C)c(-c2ncc(F)cn2)c1` (single isomer, unassigned) [Example 187, cis-1-(1-ethoxyethyl)-N-(3-(5-fluoropyrimidin-2-yl)-4-methylphenyl)-3-methyl-6-azabicyclo[3.1.1]heptane-6-carboxamide], the midpoint of inhibition under setting [2], the IC50, lay at 0.2 µM and the IC50 under setting [3] lay in the range of 0.0001 to 1 µM.
`Cc1ccc(NC(=O)N2CC3CC2c2ccccc2O3)cc1-c1ccccn1` (stereo not drawn) [Example 24, N-(4-methyl-3-(pyridin-2-yl)phenyl)-2,3-dihydro-2,5-methanobenzo[f][1,4]oxazepine-4(5H)-carboxamide]: the IC50 was 1 to 10 µM under setting [1] and 1.4 µM under setting [2].
The like results for `Cc1ccc(NC(=O)C2CN(CC(F)(F)F)C2)cc1-c1ccccn1` [Example 132, N-(4-methyl-3-pyridin-2-ylphenyl)-1-(2,2,2-trifluoroethyl)azetidine-3-carboxamide] were, in that order, greater than 10 µM and 43 µM.
As for `Cc1ccc(NC(=O)N2[C@@H]3C[C@@H](C)C[C@H]2C3)cc1-c1nccnc1F` [Example 230, cis-N-[3-(3-fluoropyrazin-2-yl)-4-methylphenyl]-3-methyl-6-azabicyclo[3.1.1]heptane-6-carboxamide], the IC50 is, setting by setting: under setting [2], 0.04 µM; under setting [3], 0.0001 to 1 µM.
Turning to `Cc1ccc(NC(=O)[C@@H]2C[C@@H]2C2CC2)cc1-c1cccnn1` (racemic) [Example 284, cis-2-cyclopropyl-N-(4-methyl-3-pyridazin-3-ylphenyl)cyclopropane-1-carboxamide], the IC50 is 1 to 10 µM under setting [1] and 1.8 µM under setting [2].
